Experimental data as given in patent US9856279B2 (AGIOS PHARMACEUTICALS, INC, priority 2011, dated 2018).
Like-named read-outs stand apart in the source and are kept apart here.

Molecular target: IDH1 R132H (Homo sapiens, UniProt O75874, R132H)
Test: Assay for IDH1 R132H inhibitors (NADPH/aKG, resazurin detection)
Format: biochemical
Experimental: Assays were conducted in a volume of 76 μl assay buffer (150 mM NaCl, 10 mM MgCl2, 20 mM Tris pH 7.5, 0.03% bovine serum albumin) as follows in a standard 384-well plate: To 25 ul of substrate mix (8 uM NADPH, 2 mM aKG), 1 μl of test compound was added in DMSO. The plate was centrifuged briefly, and then 25 μl of enzyme mix was added (0.2 μg/ml IDH1 R132H) followed by a brief centrifugation and shake at 100 RPM. The reaction was incubated for 50 minutes at room temperature, then 25 μl of detection mix (30 μM resazurin, […]) was added and the mixture further incubated for 5 minutes at room temperature. The conversion of resazurin to resorufin was detected by fluorescent spectroscopy at Ex544 Em590 c/o 590.

[1] = Table 3, enzyme assay, 50 minutes at room temperature, read-out: IC50 (IDH1 R132H Inhibition)
[2] = enzyme assay of Example 12, read-out: IDH1R132H IC50

IDH1 R132H, sequence (O75874 whole entry R132H): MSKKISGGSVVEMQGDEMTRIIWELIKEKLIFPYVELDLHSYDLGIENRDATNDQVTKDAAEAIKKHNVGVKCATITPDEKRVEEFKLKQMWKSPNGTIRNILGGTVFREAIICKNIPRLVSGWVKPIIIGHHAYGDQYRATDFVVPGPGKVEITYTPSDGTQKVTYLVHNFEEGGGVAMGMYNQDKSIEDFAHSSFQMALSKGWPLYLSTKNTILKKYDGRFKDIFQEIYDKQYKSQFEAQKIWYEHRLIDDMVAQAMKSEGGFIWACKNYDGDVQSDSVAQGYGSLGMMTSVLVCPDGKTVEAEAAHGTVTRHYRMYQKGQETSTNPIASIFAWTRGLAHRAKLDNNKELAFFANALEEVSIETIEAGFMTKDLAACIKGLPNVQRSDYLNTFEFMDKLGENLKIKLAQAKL

IC50 [1] [nM]	IC50 [2] [nM]	Compound
≤ 1000		COCCC(=O)N1CCN(c2nc(C3CC3)c(-c3cccc(C)c3)c(C)c2C#N)C[C@H]1C [Compound 243, (R)-6-cyclopropyl-2-(4-(3-methoxypropanoyl)-3-methylpiperazin-1-yl)-4-methyl-5-m-tolylnicotinonitrile]
1000 to 5000		CCc1ccc(-c2cc(C#N)c(N3CCN(C(=O)CCOC)[C@H](C)C3)nc2C(C)C)cc1 [Compound 216, 5-(4-ethylphenyl)-6-isopropyl-2-(4-(3-methoxypropanoyl)-3-methylpiperazin-1-yl)nicotinonitrile]
1000 to 5000		Cc1occc1C(=O)N1CCN(c2nc(C(C)C)c(-c3ccoc3)cc2C#N)C[C@H]1C [Compound 203, (R)-5-(furan-3-yl)-6-isopropyl-2-(3-methyl-4-(2-methylfuran-3-carbonyl)piperazin-1-yl)nicotinonitrile]
	< 500	COCCC(=O)N1CCN(c2nc(C3CC3)c(-c3cnn(Cc4ccccc4)c3)c(C)c2C#N)C[C@H]1C [Compound 358, (R)-5-(1-benzyl-1H-pyrazol-4-yl)-6-cyclopropyl-2-[4-(3-methoxy-propionyl)-3-methyl-piperazin-1-yl]-4-methyl-nicotinonitrile]
	500 to 1000	CCO[C@H]1C[C@@H]1C(=O)N1CCN(c2nc(C3CC3)c(-c3ccc(F)cc3)cc2C#N)C[C@H]1C1CC1 [Compound 548, 6-cyclopropyl-2-((R)-3-cyclopropyl-4-((1S,2S)-2-ethoxycyclopropanecarbonyl)piperazin-1-yl)-5-(4-fluorophenyl)nicotinonitrile]
1000 to 5000		CC(C)c1cc(-c2ccccc2)c(C#N)c(N2CCN(C(=O)c3ccoc3)C(C)C2)n1 (stereo not shown) [Compound 110, 2-(4-(furan-3-carbonyl)-3-methylpiperazin-1-yl)-6-isopropyl-4-phenylnicotinonitrile]
	500 to 1000	N#Cc1cc(-c2cccc3c2NC(=O)C3=O)c(C2CC2)nc1N1CCN(C(=O)C2CC2)[C@H](C2CC2)C1 [Compound 513, (R)-2-(4-(cyclopropanecarbonyl)-3-cyclopropylpiperazin-1-yl)-6-cyclopropyl-5-(2,3-dioxoindolin-7-yl)nicotinonitrile]
1000 to 5000		CC(C)c1cc(-c2cccc(F)c2)c(C#N)c(N2CC(C)N(C(=O)Cc3ccccc3)C(C)C2)n1 (stereo not shown) [Compound 135, 2-(3,5-dimethyl-1-(2-phenylacetyl)piperazin-1-yl)-4-(3-fluorophenyl)-6-isopropylnicotinonitrile]
1000 to 5000		COCCC(=O)N1CCN(c2nc(C3CC3)c(-c3ccc(OC)c(OC)c3)cc2C#N)C[C@H]1C [Compound 237, (R)-6-cyclopropyl-5-(3,4-dimethoxyphenyl)-2-(4-(3-methoxypropanoyl)-3-methylpiperazin-1-yl)nicotinonitrile]
	< 500	CCO[C@H]1C[C@H]1C(=O)N1CCN(c2nc(C3CC3)c(-c3ccc(F)cc3)cc2C#N)C[C@H]1C1CC1 [Compound 564, 6-cyclopropyl-2-((R)-3-cyclopropyl-4-((1R,2S)-2-ethoxycyclopropanecarbonyl)piperazin-1-yl)-5-(4-fluorophenyl)nicotinonitrile]
1000 to 5000		COCCC(=O)N1CCN(c2nc(C(C)C)c(-c3cccc(Cl)c3)cc2C#N)C[C@H]1C [Compound 218, (R)-5-(3-chlorophenyl)-6-isopropyl-2-(4-(3-methoxypropanoyl)-3-methylpiperazin-1-yl)nicotinonitrile]
≤ 1000		COCCC(=O)N1CCN(c2nc(C3CC3)c(-c3ccc(C)c(F)c3)cc2C#N)C[C@H]1C [Compound 235, (R)-6-cyclopropyl-5-(3-fluoro-4-methylphenyl)-2-(4-(3-methoxypropanoyl)-3-methylpiperazin-1-yl)nicotinonitrile]
≤ 1000		COCCC(=O)N1CCN(c2nc(C(C)C)c(-c3cccc(OC)c3)cc2C#N)C[C@H]1C [Compound 212, (R)-6-isopropyl-5-(3-methoxyphenyl)-2-(4-(3-methoxypropanoyl)-3-methylpiperazin-1-yl)nicotinonitrile]
	500 to 1000	COCCC(=O)N1CCN(c2nc(C3CC3)c(-c3cccc(OC)c3F)c(C)c2C#N)C[C@H]1C [Compound 324, (R)-6-cyclopropyl-5-(2-fluoro-3-methoxy-phenyl)-2-[4-(3-methoxy-propionyl)-3-methyl-piperazin-1-yl]-4-methyl-nicotinonitrile]
	500 to 1000	COCCC(=O)N1CCN(c2nc(C3CC3)c(-c3cccs3)cc2C#N)C[C@H]1C [Compound 273, (R)-6-cyclopropyl-2-(4-(3-methoxypropanoyl)-3-methylpiperazin-1-yl)-5-(thiophen-2-yl)nicotinonitrile]
1000 to 5000		COCCC(=O)N1CCN(c2nc(C(C)C)c(-c3ccc(C(F)(F)F)cc3)cc2C#N)C[C@H]1C [Compound 189, (R)-6-isopropyl-2-(4-(3-methoxypropanoyl)-3-methylpiperazin-1-yl)-5-(4-(trifluoromethyl)phenyl)-nicotinonitrile]
5000 to 15000		N#Cc1cc(-c2ccccc2)c(-c2ccccc2)nc1N1CCN(C(=O)c2ccoc2)CC1 [Compound 122, 2-(4-(furan-3-carbonyl)piperazin-1-yl)-5,6-diphenylnicotinonitrile]
1000 to 5000		CC(C)c1cc(-c2ccccc2)c(C#N)c(N2CCN(C(=O)c3ccco3)CC2c2ccccc2)n1 (stereo not shown) [Compound 167, 2-(4-(furan-2-carbonyl)-2-phenylpiperazin-1-yl)-6-isopropyl-4-phenylnicotinonitrile]
≤ 1000		COCCC(=O)N1CCN(c2nc(C3CC3)c(-c3ccc4[nH]ccc4c3)cc2C#N)C[C@H]1C [Compound 253, (R)-6-cyclopropyl-5-(1H-indol-5-yl)-2-(4-(3-methoxypropanoyl)-3-methylpiperazin-1-yl)nicotinonitrile]
	500 to 1000	COCCC(=O)N1CCN(c2nc(C3CC3)c(-c3cccc(N(C)C(=O)C(F)F)c3)cc2C#N)C[C@H]1C [Compound 455]
1000 to 5000		CCOc1ccccc1-c1cc(C#N)c(N2CCN(C(=O)c3ccco3)C[C@@H]2C)nc1C(C)C [Compound 184, (S)-5-(2-ethoxyphenyl)-2-(4-(furan-2-carbonyl)-2-methylpiperazin-1-yl)-6-isopropylnicotinonitrile]
1000 to 5000		CC(C)c1nc(N2CCN(C(=O)c3ccoc3)C(C)C2)c(C#N)cc1-c1ccccc1 (stereo not shown) [Compound 120, 2-(4-(furan-3-carbonyl)-3-methylpiperazin-1-yl)-6-isopropyl-5-phenylnicotinonitrile]
	< 500	C[C@@H]1CN(c2nc(C3CC3)c(Oc3ccnc(Cl)c3)cc2C#N)CCN1C(=O)CCO [Compound 704, (R)-5-((2-chloropyridin-4-yl)oxy)-6-cyclopropyl-2-(4-(3-hydroxypropanoyl)-3-methylpiperazin-1-yl)nicotinonitrile]
1000 to 5000		COCCC(=O)N1CCN(c2nc(C(C)C)c(-c3cccc(F)c3)cc2C#N)C[C@H]1C [Compound 231, (R)-5-(3-fluorophenyl)-6-isopropyl-2-(4-(3-methoxypropanoyl)-3-methylpiperazin-1-yl)nicotinonitrile]
	500 to 1000	C#Cc1cc(-c2cc(C#N)c(N3CCN(C(=O)C4CC4)[C@H](C)C3)nc2C2CC2)ccn1 [Compound 593, (R)-6-(4-(cyclopropanecarbonyl)-3-methylpiperazin-1-yl)-2-cyclopropyl-2′-ethynyl-3,4′-bipyridine-5-carbonitrile]
